According to ChEMBL document CHEMBL3822420, “New peptide deformylase inhibitors design, synthesis and pharmacokinetic assessment” (Bioorg Med Chem Lett, 2016):
≈ marks a conversion by molar mass, not a printed value.

Columns and labels:
[1] = tested on: Staphylococcus aureus; assay: Antibacterial activity against methicillin-sensitive Staphylococcus aureus 14-4; assay type: functional
[2] = AUC (0 to infinity) in Sprague-Dawley rat at 2 mg/kg, iv; assay type: ADME, organism-based; design: dose 2 mg/kg, route intravenous, time infinity; conditions: Sprague-Dawley, in vivo
[3] = Half life in Sprague-Dawley rat at 2 mg/kg, iv; assay type: ADME, organism-based; conditions: in vivo
[4] = Volume of distribution at steady state in Sprague-Dawley rat at 2 mg/kg, iv; assay type: ADME, organism-based; conditions: in vivo, read-out: Vdss
[5] = tested on: Enterococcus faecalis; assay: Antibacterial activity against Enterococcus faecalis 14-1; assay type: functional
[6] = MRT (0 to t) in Sprague-Dawley rat at 10 mg/kg, po; assay type: ADME, organism-based; conditions: in vivo
[7] = Tmax in Sprague-Dawley rat at 2 mg/kg, iv; assay type: ADME, organism-based; conditions: in vivo
[8] = (§1) AUC (0 to infinity) in Sprague-Dawley rat at 10 mg/kg, po; assay type: ADME, organism-based; design: dose 10 mg/kg, time infinity, route oral; conditions: Sprague-Dawley, in vivo
[9] = tested on: Rattus norvegicus; assay: Volume of distribution at steady state in Sprague-Dawley rat at 10 mg/kg, po; assay type: ADME, organism-based; conditions: in vivo
[10] = tested on: Escherichia coli; assay: Antibacterial activity against Escherichia coli 14-1; assay type: functional
[11] = tested on: Staphylococcus epidermidis; assay: Antibacterial activity against methicillin-resistant Staphylococcus epidermidis 14-4; assay type: functional
[12] = tested on: Enterococcus faecalis; assay: Antibacterial activity against Enterococcus faecalis 14-3; assay type: functional
[13] = tested on: Enterococcus faecalis; assay: Antibacterial activity against Enterococcus faecalis 14-5; assay type: functional
[14] = AUC (0 to t) in Sprague-Dawley rat at 2 mg/kg, iv; assay type: ADME, organism-based; conditions: Sprague-Dawley, in vivo
[15] = Tmax in Sprague-Dawley rat at 10 mg/kg, po; assay type: ADME, organism-based; conditions: in vivo
[16] = MRT (0 to t) in Sprague-Dawley rat at 2 mg/kg, iv; assay type: ADME, organism-based; conditions: in vivo
[17] = tested on: Staphylococcus epidermidis; assay: Antibacterial activity against methicillin-sensitive Staphylococcus epidermidis 14-3; assay type: functional
[18] = (§2) Half life in Sprague-Dawley rat at 10 mg/kg, po; assay type: ADME, organism-based; conditions: Sprague-Dawley, in vivo
[19] = Cmax in Sprague-Dawley rat at 2 mg/kg, iv; assay type: ADME, organism-based; design: dose 2 mg/kg, route intravenous; conditions: in vivo
[20] = Oral bioavailability in Sprague-Dawley rat at 10 mg/kg; assay type: ADME, organism-based; conditions: in vivo
[21] = Clearance in Sprague-Dawley rat at 2 mg/kg, iv; assay type: ADME, organism-based; conditions: in vivo
[22] = tested on: Staphylococcus epidermidis; assay: Antibacterial activity against methicillin-resistant Staphylococcus epidermidis 14-2; assay type: functional
[23] = tested on: Enterococcus faecalis; assay: Antibacterial activity against Enterococcus faecalis 14-2; assay type: functional
[24] = tested on: Escherichia coli; assay: Antibacterial activity against Escherichia coli 14-2; assay type: functional
[25] = tested on: Staphylococcus aureus; assay: Antibacterial activity against methicillin-resistant Staphylococcus aureus 14-2; assay type: functional
[26] = tested on: Staphylococcus aureus; assay: Antibacterial activity against methicillin-resistant Staphylococcus aureus 14-4; assay type: functional
[27] = tested on: Escherichia coli; assay: Antibacterial activity against Escherichia coli 14-2 expressing extended-spectrum beta-lactamase; assay type: functional
[28] = (§3) Clearance in Sprague-Dawley rat at 10 mg/kg, po; assay type: ADME, organism-based; conditions: Sprague-Dawley, in vivo
[29] = tested on: Staphylococcus aureus; assay: Antibacterial activity against methicillin-sensitive Staphylococcus aureus 14-1; assay type: functional
[30] = tested on: Staphylococcus epidermidis; assay: Antibacterial activity against methicillin-resistant Staphylococcus epidermidis 14-3; assay type: functional
[31] = Cmax in Sprague-Dawley rat at 10 mg/kg, po; assay type: ADME, organism-based; design: dose 10 mg/kg, route oral; conditions: in vivo
[32] = tested on: Staphylococcus aureus; assay: Antibacterial activity against methicillin-resistant Staphylococcus aureus 14-5; assay type: functional
[33] = AUC (0 to t) in Sprague-Dawley rat at 10 mg/kg, po; assay type: ADME, organism-based; conditions: in vivo
[34] = tested on: Staphylococcus aureus; assay: Antibacterial activity against methicillin-resistant Staphylococcus aureus 14-1; assay type: functional
[35] = tested on: Staphylococcus epidermidis; assay: Antibacterial activity against methicillin-resistant Staphylococcus epidermidis 14-1; assay type: functional
[36] = tested on: Staphylococcus aureus; assay: Antibacterial activity against methicillin-sensitive Staphylococcus aureus 14-2; assay type: functional
[37] = tested on: Escherichia coli; assay: Antibacterial activity against Escherichia coli 14-1 expressing extended-spectrum beta-lactamase; assay type: functional
[38] = tested on: Staphylococcus aureus; assay: Antibacterial activity against methicillin-sensitive Staphylococcus aureus 14-3; assay type: functional
[39] = tested on: Staphylococcus epidermidis; assay: Antibacterial activity against methicillin-sensitive Staphylococcus epidermidis 14-1; assay type: functional
[40] = tested on: Staphylococcus epidermidis; assay: Antibacterial activity against methicillin-sensitive Staphylococcus epidermidis 14-2; assay type: functional
[41] = tested on: Rattus norvegicus; assay: as §1; assay type: ADME, organism-based; design: dose 10 mg/kg, time infinity, route oral; conditions: in vivo
[42] = tested on: Rattus norvegicus; assay: as §2; assay type: ADME, organism-based; conditions: in vivo
[43] = tested on: Rattus norvegicus; assay: as §3; assay type: ADME, organism-based; conditions: in vivo

Structure (SMILES)	MIC [1] [µg/mL]	AUC(0-inf) [2] [ng·h/mL]	half-life [3] [h]	Vd [4] [L/kg]	MIC [5] [µg/mL]	MRT last [6] [h]	Tmax [7] [min]	Vdss [9] [L/kg]	MIC [10] [µg/mL]	MIC [11] [µg/mL]	MIC [12] [µg/mL]	MIC [13] [µg/mL]	AUC(0-t) [14] [ng·h/mL]	Tmax [15] [h]	MRT last [16] [h]	MIC [17] [µg/mL]	Cmax [19] [ng/mL]	bioavailability [20] [%]	clearance [21] [mL/min/kg]	MIC [23] [µg/mL]	also measured
CCCC[C@H](CN(O)C=O)C(=O)N1CC2(CC2)C[C@H]1c1nc2ccccc2[nH]1	2 (≈ 5.2 µM)	1270	5.23	3	8 (≈ 20.8 µM)	4.13	4.8	27.4	32 (≈ 83.2 µM)	1 (≈ 2.6 µM)	8 (≈ 20.8 µM)	64 (≈ 166 µM)	1260	0.25	1.91	0.5 (≈ 1.3 µM)	1740	37	26.4	8 (≈ 20.8 µM)	AUC(0-inf) [8]: 2380 ng·h/mL; half-life [18]: 4.46 h; MIC [22]: 1 µg/mL (≈ 2.6 µM); MIC [24]: 32 µg/mL (≈ 83.2 µM); MIC [25]: 2 µg/mL (≈ 5.2 µM); MIC [26]: 2 µg/mL (≈ 5.2 µM); MIC [27]: 32 µg/mL (≈ 83.2 µM); CL/F [28]: 70.9 mL/min/kg; MIC [29]: 2 µg/mL (≈ 5.2 µM); MIC [30]: 0.5 µg/mL (≈ 1.3 µM); Cmax [31]: 1680 ng/mL; MIC [32]: 0.5 µg/mL (≈ 1.3 µM); AUC(0-t) [33]: 2340 ng·h/mL; MIC [34]: 1 µg/mL (≈ 2.6 µM); MIC [35]: 1 µg/mL (≈ 2.6 µM); MIC [36]: 2 µg/mL (≈ 5.2 µM); MIC [37]: 0.5 µg/mL (≈ 1.3 µM); MIC [38]: 2 µg/mL (≈ 5.2 µM); MIC [39]: 0.5 µg/mL (≈ 1.3 µM); MIC [40]: 2 µg/mL (≈ 5.2 µM)
CCCC[C@H](CN(O)C=O)C(=O)N1CC2(CC2)C[C@H]1C(=O)Nc1cc(C(C)(C)C)on1	0.06 (≈ 0.138 µM)	1140	1.23	2.7	0.5 (≈ 1.15 µM)	3.43	4.8	36.2	64 (≈ 147 µM)	0.03 (≈ 0.069 µM)	0.5 (≈ 1.15 µM)	> 128	1140	0.58	1.5	0.015 (≈ 0.0345 µM)	930	35	29.6	0.5 (≈ 1.15 µM)	AUC(0-inf) [8]: 1980 ng·h/mL; half-life [18]: 4.52 h; MIC [22]: 0.03 µg/mL (≈ 0.069 µM); MIC [24]: 64 µg/mL (≈ 147 µM); MIC [25]: 0.06 µg/mL (≈ 0.138 µM); MIC [26]: < 0.008 µg/mL; MIC [27]: 64 µg/mL (≈ 147 µM); CL/F [28]: 90.6 mL/min/kg; MIC [29]: 0.125 µg/mL (≈ 0.288 µM); MIC [30]: 0.015 µg/mL (≈ 0.0345 µM); Cmax [31]: 860 ng/mL; MIC [32]: 0.06 µg/mL (≈ 0.138 µM); AUC(0-t) [33]: 1950 ng·h/mL; MIC [34]: 0.06 µg/mL (≈ 0.138 µM); MIC [35]: 0.03 µg/mL (≈ 0.069 µM); MIC [36]: 0.125 µg/mL (≈ 0.288 µM); MIC [37]: 1 µg/mL (≈ 2.3 µM); MIC [38]: 0.25 µg/mL (≈ 0.575 µM); MIC [39]: 0.03 µg/mL (≈ 0.069 µM); MIC [40]: 0.125 µg/mL (≈ 0.288 µM)
CCCC[C@H](CN(O)C=O)C(=O)N1CC2(CC2)C[C@H]1C(=O)Nc1ccc(C)c(Nc2nccc(-c3cccnc3)n2)c1	0.015 (≈ 0.0262 µM)	892	3.6	2.6	0.03 (≈ 0.0525 µM)	3.32	4.8	1772	> 128	< 0.008	0.03 (≈ 0.0525 µM)	> 128	881	0.25	1.15	< 0.008	1080	3	37.7	0.015 (≈ 0.0262 µM)	AUC [41]: 134 ng·h/mL; t1/2 [42]: 2.24 h; MIC [24]: > 128 µg/mL; MIC [25]: 0.015 µg/mL (≈ 0.0262 µM); MIC [26]: < 0.008 µg/mL; MIC [27]: > 128 µg/mL; CL [43]: 5.57 mL/min/kg; MIC [29]: 0.015 µg/mL (≈ 0.0262 µM); Cmax [31]: 100 ng/mL; MIC [32]: < 0.008 µg/mL; AUC(0-t) [33]: 126 ng·h/mL; MIC [34]: 0.015 µg/mL (≈ 0.0262 µM); MIC [35]: < 0.008 µg/mL; MIC [36]: 0.015 µg/mL (≈ 0.0262 µM); MIC [37]: 4 µg/mL (≈ 7 µM); MIC [38]: 0.015 µg/mL (≈ 0.0262 µM); MIC [39]: 0.015 µg/mL (≈ 0.0262 µM); MIC [40]: < 0.008 µg/mL
